Drawing on PubChem BioAssay (NCI), this text covers GI50 and TGI for 9 compounds.

Among the test systems are SR leukemia; NCI-H522 lung; SNB-19 CNS; SNB-75 CNS; 786-0 renal; UACC-62 melanoma; HS 578T breast; K-562 leukemia; MALME-3M melanoma; OVCAR-4 ovarian.
Holding throughout (test): NCI anticancer screen, dose series, 48 h

Where “and” joins values, the source holds several entries; their conditions need not be identical. Equal entries are not always repeated.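 How tested: cells in 96-well plates exposed to compound for 48 hours at five concentrations. GI50 = concentration required for 50% inhibition of growth. The concentration for full growth arrest is given as TGI.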 A value given as a limit tells only on which side of the number the result lay.

With `O=C(/C=C/C12c3ccccc3C(c3ccccc31)C1C(=O)N(c3ccccc3)C(=O)C12)c1ccc(Cl)cc1` (stereo not drawn), the GI50 was 1.07 µM in the assay with SR leukemia; 1.74 µM in the assay on NCI-H522 lung; 2.68 µM in the assay with SNB-19 CNS; 1.37 µM in the assay with SNB-75 CNS; 2.44 µM in the assay with 786-0 renal; 1.66 µM in the assay with UACC-62 melanoma. For the same compound, the GI50 is 1.82 µM in the assay with HS 578T breast, 1.55 µM in the assay on K-562 leukemia and 1.6 µM with MALME-3M melanoma. In addition, the TGI was more than 100 µM in the assay with SR leukemia; 3.58 µM in the assay with NCI-H522 lung; more than 100 µM in the assay on SNB-19 CNS; 6.77 µM in the assay on SNB-75 CNS; 6.97 µM in the assay with 786-0 renal; 4.58 µM in the assay on UACC-62 melanoma. For the same compound, the TGI with HS 578T breast is 5.92 µM; with K-562 leukemia, more than 100 µM; in the assay with MALME-3M melanoma, 3.37 µM.
Consider `CCNC(C)(C)C(SS)c1ccc(Br)cc1` (stereo not drawn), for which the TGI is more than 100 µM in the assay on SR leukemia; 35.1 µM in the assay with NCI-H522 lung; more than 100 µM in the assay on SNB-19 CNS; more than 100 µM in the assay on SNB-75 CNS; 49.6 µM in the assay on 786-0 renal; more than 100 µM in the assay on UACC-62 melanoma. The TGI with HS 578T breast, in the assay on K-562 leukemia, in the assay on MALME-3M melanoma and with OVCAR-4 ovarian was more than 100 µM in each case.
In the case of `N=Nc1c(OC(=O)Nc2ccccc2)[nH]c2ccccc12`, the TGI is more than 100 µM in the assay on SR leukemia; 36.6 µM in the assay on NCI-H522 lung; 63 µM in the assay with SNB-19 CNS; 50 µM in the assay on SNB-75 CNS; 32.6 µM with 786-0 renal; 35.5 µM with UACC-62 melanoma. For the same compound, the TGI is more than 100 µM in the assay on HS 578T breast, more than 100 µM in the assay with K-562 leukemia, 29.2 µM in the assay on MALME-3M melanoma and 30.7 µM in the assay with OVCAR-4 ovarian.
Turning to `O=C(COc1ccc(/C=C2\Oc3ccccc3C2=O)cc1)Nc1nccs1`, the GI50 with SR leukemia was 20.8 µM; in the assay with SNB-19 CNS, more than 100 µM; in the assay with SNB-75 CNS, 17.4 µM; in the assay with 786-0 renal, 54.9 µM; in the assay on UACC-62 melanoma, more than 100 µM; in the assay on HS 578T breast it was 20.7 µM. The values for the GI50 with K-562 leukemia, in the assay on MALME-3M melanoma and in the assay on OVCAR-4 ovarian were 60.1 µM, more than 100 µM and 70.4 µM, respectively. For the same compound, the TGI with SR leukemia was 61 µM; in the assay with SNB-19 CNS it was more than 100 µM; with SNB-75 CNS, 72.6 µM; in the assay on 786-0 renal, more than 100 µM; in the assay with UACC-62 melanoma, more than 100 µM; in the assay on HS 578T breast, 80.5 µM. Also, the TGI with K-562 leukemia, in the assay with MALME-3M melanoma and in the assay with OVCAR-4 ovarian was more than 100 µM each time.
For the compound `COc1cc(NS(C)(=O)=O)ccc1Nc1c2ccccc2nc2c(C)cccc12`, the GI50 with SR leukemia was < 0.0145 µM and 0.013 µM; in the assay with NCI-H522 lung it was 0.662 µM and 0.219 µM; in the assay on SNB-19 CNS it was 0.196 µM and 0.23 µM; in the assay on SNB-75 CNS, 0.143 µM and 0.316 µM; with 786-0 renal it was 0.16 µM and 0.17 µM; in the assay on UACC-62 melanoma, 0.182 µM and 0.211 µM. Moreover, the GI50 was 0.652 µM and 0.406 µM with HS 578T breast; 0.272 µM and 0.276 µM in the assay with K-562 leukemia; 0.312 µM and 0.251 µM in the assay on MALME-3M melanoma; 1.86 µM and 2.6 µM in the assay on OVCAR-4 ovarian. Besides, the TGI was 6.75 µM and 2.16 µM with SR leukemia; 12.2 µM and 2.98 µM in the assay on NCI-H522 lung; 15.5 µM and 15.9 µM with SNB-19 CNS; 4.31 µM and 10.7 µM in the assay with SNB-75 CNS; 0.923 µM and 1.34 µM in the assay on 786-0 renal; 2.97 µM and 4.19 µM in the assay with UACC-62 melanoma. The TGI was 12.8 µM and 6.53 µM in the assay on HS 578T breast; > 37.8 µM and 11.8 µM with K-562 leukemia; 3.81 µM and 3.2 µM in the assay with MALME-3M melanoma; 9.74 µM and 16.7 µM with OVCAR-4 ovarian.
Take `CN(Cc1cnc(N)nc1N)c1ccc(C(=O)O)cc1`: the GI50 in the assay with SR leukemia, with NCI-H522 lung, in the assay on SNB-19 CNS, with SNB-75 CNS, with 786-0 renal and in the assay with UACC-62 melanoma was more than 100 µM each time. Besides, the GI50 in the assay on HS 578T breast, in the assay on MALME-3M melanoma and in the assay with OVCAR-4 ovarian was more than 100 µM each time. For the same compound, the TGI in the assay on SR leukemia, in the assay on NCI-H522 lung, with SNB-19 CNS, in the assay on SNB-75 CNS, with 786-0 renal and in the assay on UACC-62 melanoma was more than 100 µM throughout. Also, the TGI in the assay on HS 578T breast, with MALME-3M melanoma and in the assay on OVCAR-4 ovarian was more than 100 µM in each case.
Regarding `COc1ccc2c(c1)[C@]1(C[C@H]1c1ccc3c(/C=C/c4ccc(CN5C[C@@H](C)O[C@@H](C)C5)cc4)n[nH]c3c1)C(=O)N2`, the GI50 is 0.269 µM with SR leukemia; 6.4 µM in the assay on NCI-H522 lung; 9.74 µM in the assay on SNB-19 CNS; 1.84 µM in the assay on SNB-75 CNS; 2.3 µM with 786-0 renal; 9.79 µM in the assay on UACC-62 melanoma. The GI50 is 4.84 µM with HS 578T breast, 2.22 µM in the assay with MALME-3M melanoma and 2.65 µM in the assay with OVCAR-4 ovarian. For the same compound, the TGI in the assay on SR leukemia was 6.61 µM; in the assay on NCI-H522 lung it was more than 100 µM; with SNB-19 CNS, more than 100 µM; in the assay on SNB-75 CNS, 13.4 µM; with 786-0 renal it was 8.58 µM; in the assay on UACC-62 melanoma, 39.6 µM. Besides, the TGI in the assay on HS 578T breast was 49.6 µM; with MALME-3M melanoma, 8.63 µM; with OVCAR-4 ovarian it was more than 100 µM.
`Cc1cc(N2CCN(C)CC2)nc(NCc2cc(Nc3ccnc4cc(Cl)ccc34)ccc2F)n1`: the GI50 with SR leukemia was 1.94 µM; in the assay with NCI-H522 lung, 1.92 µM; in the assay on SNB-19 CNS, 3.32 µM; with SNB-75 CNS it was 1.69 µM; in the assay on 786-0 renal it was 1.84 µM; in the assay with HS 578T breast, 2.82 µM. The GI50 in the assay on K-562 leukemia is 1.9 µM; in the assay with MALME-3M melanoma, 2.08 µM; in the assay on OVCAR-4 ovarian it was 1.42 µM. The TGI in the assay on SR leukemia is 4.89 µM; with NCI-H522 lung, 3.88 µM; with SNB-19 CNS, more than 100 µM; with SNB-75 CNS it was 5.56 µM; in the assay with 786-0 renal it was 3.7 µM; with HS 578T breast, 7.97 µM. Besides, the TGI is 5.7 µM with K-562 leukemia, 3.89 µM in the assay on MALME-3M melanoma and 6.13 µM in the assay with OVCAR-4 ovarian.
As to `O=S(=O)(Nc1cc(Br)c(O)c2ccccc12)c1ccc(F)cc1`, the GI50 in the assay on SR leukemia is 4.24 µM; with NCI-H522 lung, 5.23 µM; in the assay on SNB-19 CNS, 9.35 µM; in the assay with SNB-75 CNS it was 3.57 µM; in the assay on 786-0 renal, 3.35 µM; with UACC-62 melanoma, 1.92 µM. The figures for the GI50 with HS 578T breast, with K-562 leukemia and in the assay on MALME-3M melanoma were 2.75 µM, 3.19 µM and 2.03 µM, respectively. For the same compound, the TGI in the assay on SR leukemia was 34.3 µM; in the assay with NCI-H522 lung, 83.4 µM; with SNB-19 CNS, 28 µM; in the assay with SNB-75 CNS it was 17.1 µM; in the assay with 786-0 renal, 11.3 µM; with UACC-62 melanoma, 3.88 µM. Besides, the TGI in the assay on HS 578T breast came out at 9.98 µM; with K-562 leukemia it was 8.28 µM; in the assay on MALME-3M melanoma, 3.84 µM.
